Results published in patent US20040063580A1, “Bicyclic triazolone derivatives and a herbicides containing the same” (priority 2000, published 2004).

What was measured:
velvetleaf = test: Herbicidal effects against weeds (post emergence), velvetleaf; format: in vivo; conditions: post emergence spray, evaluated two weeks after treatment
Method: (§1) Herbicidal Effects Against Weeds (Post Emergence)
(§2) After filling 300 g field soil in jiffypot™ having diameter of 10 cm, the soil was steam sterilized. Seeds of velvetleaf, redroot pigweed, tall morningglory and corn onto the surface of the soil were scattered, and then covered with the soil to a thickness of 0.5 cm for the weed, 1 cm for the crop. When the weed and the crop reached the designated growth stage, they were treated with the compound to be tested.
(§3) Preparation of the Test Solution and the Method of Treatment
(§4) The compound to be tested was dissolved in acetone which contain Tween 20™ and diluted with deionized water to prepare the test solution for 10 g/a and 1 g/a use. The test solution was sprayed on the pots in a device for spraying using spraygun.
(§5) Method of Indicating the Effect and Phytotoxicity
(§6) The effect of the compound tested on the weeds and phytotoxicity on the crops were evaluated two weeks after treatment with the compound as 6 grades from 0 to 5 shown in the Table 9 and 10.
(§7) In the Table 11 and 12, the herbicidal effects were indicated by the following evaluation index.

redroot pigweed = test: Herbicidal effects against weeds (post emergence), redroot pigweed; format: in vivo; conditions: post emergence spray, evaluated two weeks after treatment
Method: as §1, §2, §3, §4, §5, §6, §7

corn = test: Post emergence test, phytotoxicity on the crop corn; format: in vivo; conditions: post emergence spray, evaluated two weeks after treatment
Method: as §1, §2, §3, §4, §5, §6
The phytotoxicity was indicated by the following evaluation index.

Row | melting point [°C] | Structure (SMILES) | Evaluation index Velvet leaf (velvetleaf; 1 g/a) | Evaluation index Velvet leaf (velvetleaf; 10 g/a) | Evaluation index Redroot pigweed (redroot pigweed; 1 g/a) | Evaluation index Redroot pigweed (redroot pigweed; 10 g/a) | Evaluation index Corn (phytotoxicity) (corn; 1 g/a) | Evaluation index Corn (phytotoxicity) (corn; 10 g/a)
1 | – | CCS(=O)(=O)Nc1cc(-n2nc3n(c2=O)CC(C)S3)c(F)cc1C#N (stereo not drawn) [C-4] | 5 (maximum *all dead) 100) | 5 (maximum *all dead) 100) | 5 (maximum *all dead) 100) | 5 (maximum *all dead) 100) | – | –
2 | – | CCCS(=O)(=O)Nc1cc(-n2nc3ccc(Cl)cn3c2=O)c(F)cc1[N+](=O)[O-] [A-40] | – | 5 (maximum *all dead) 100) | – | 5 (maximum *all dead) 100) | – | –
3 | – | CCS(=O)(=O)Nc1cc(-n2nc3ccc(Br)cn3c2=O)ccc1C#N [A-45] | 5 (maximum *all dead) 100) | – | 5 (maximum *all dead) 100) | – | – | –
4 | 148 to 150 | CC(C)c1sc(F)c(-n2nc3ccc(Cl)cn3c2=O)c1C#N [Compound No. A-18, 6-Chloro-2-(4-cyano-2-fluoro-5-isopropylthiophenyl)-1,2,4-triazolo[4,3-a]pyridin-3(2H)-one] | – | – | – | – | – | –
5 | – | C#CC(C)Oc1cc(-n2nc3ccc(Cl)cn3c2=O)c(F)cc1Cl (stereo not drawn) [A-26] | 5 (maximum *all dead) 100) | 5 (maximum *all dead) 100) | 5 (maximum *all dead) 100) | 5 (maximum *all dead) 100) | – | –
6 | – | CCS(=O)(=O)Nc1cc(-n2nc3n(c2=O)CCS3)c(F)cc1C#N [Compound No. C-2, 5,6-Dihydro-2-(4-cyano-5-ethylsulfonylamino-2-fluorophenyl)thiazolo[2,3-c][1,2,4]triazol-3(2H)-one] | 5 (maximum *all dead) 100) | 5 (maximum *all dead) 100) | 5 (maximum *all dead) 100) | 5 (maximum *all dead) 100) | 0 (no effect 0) | 0 (no effect 0)
7 | 120 to 123 | CC(C)OC(=O)c1cc(-n2nc3ccc(Cl)cn3c2=O)c(F)cc1Cl [Compound No. A-33, Isopropyl 2-chloro-4-fluoro-5-(6-chloro-2,3-dihydro-3-oxo-1,2,4-triazolo[4,3-a]pyridin-2-yl)benzoate] | – | – | – | – | – | –
8 | – | CCC(=O)N(c1cc(-n2nc3ccc(Cl)cn3c2=O)c(F)cc1C#N)S(=O)(=O)CC [A-7] | – | 5 (maximum *all dead) 100) | – | 5 (maximum *all dead) 100) | – | –
9 | – | CC(C)S(=O)(=O)Nc1cc(-n2nc3ccc(Cl)cn3c2=O)c(F)cc1[N+](=O)[O-] [A-41] | 5 (maximum *all dead) 100) | 5 (maximum *all dead) 100) | 5 (maximum *all dead) 100) | 5 (maximum *all dead) 100) | – | –
10 | – | CCS(=O)(=O)Nc1cc(-n2nc3n(c2=O)CCCN3C)c(F)cc1C#N [Compound No. F-2, 5,6,7,8-Tetrahydro-8-methyl-2-(4-cyano-5-ethylsulfonylamino-2-fluorophenyl)-[1,2,4]triazolo [4,3-a]pyrimidin-3(2H)-one] | 4 (maximum 87.6 to 99.9) | 5 (maximum *all dead) 100) | 5 (maximum *all dead) 100) | 5 (maximum *all dead) 100) | 1 (small 0.1 to 12.5) | 3 (big 25.1 to 50.0)
11 | – | CC(C)S(=O)(=O)Nc1cc(-n2nc3ccc(Cl)cn3c2=O)c(F)cc1C#N [A-11] | – | 5 (maximum *all dead) 100) | – | 5 (maximum *all dead) 100) | – | –
12 | – | C=CCOc1cc(-n2nc3ccc(Cl)cn3c2=O)c(F)cc1Cl [Compound No. A-24] | 4 (maximum 87.6 to 99.9) | 5 (maximum *all dead) 100) | 5 (maximum *all dead) 100) | 5 (maximum *all dead) 100) | – | –
13 | 145 to 147 | C#CCOc1cc(-n2nc3c(Cl)cc(Cl)cn3c2=O)c(F)cc1C#N [Compound No. A-49, 6,8-Dichloro-2-(4-cyano-2-fluoro-5-propargyloxyphenyl)-1,2,4-triazolo[4,3-a]pyridin-3(2H)-one] | – | – | – | – | – | –
14 | – | CCOC(=O)COc1cc(-n2nc3cc(C)ccn3c2=O)c(F)cc1Cl [A-55] | – | 4 (maximum 87.6 to 99.9) | – | 5 (maximum *all dead) 100) | – | –
15 | 209 to 211 | C#CCOc1cc(-n2nc3ccc(Cl)cn3c2=O)c(F)cc1C#N [Compound No. A-14, 6-Chloro-2-(4-cyano-2-fluoro-5-propargyloxyphenyl)-1,2,4-triazolo[4,3-a]pyridin-3(2H)-one] | – | – | – | – | – | –
16 | 176 to 178 | C#CCN(c1cc(-n2nc3ccc(Cl)cn3c2=O)c(F)cc1C#N)S(=O)(=O)CC [Compound No. A-5, 6-Chloro-2-[4-cyano-5-(N-ethanesulfonyl-N-propargylamino)-2-fluorophenyl]-1,2,4-triazolo[4,3-a]pyridin-3(2H)-one] | – | – | – | – | – | –
17 | 183 to 185 | C=CCOc1cc(-n2nc3ccc(Cl)cn3c2=O)c(F)cc1C#N [Compound No. A-13, 2-(5-Allyloxy-4-cyano-2-fluorophenyl)-6-chloro-1,2,4-triazolo[4,3-a]pyridin-3(2H)-one] | – | – | – | – | – | –
18 | – | C=C(Cl)COc1cc(-n2nc3ccc(Cl)cn3c2=O)c(F)cc1Cl [A-61] | – | 4 (maximum 87.6 to 99.9) | – | 5 (maximum *all dead) 100) | – | –
19 | 154 to 157 | CNS(=O)(=O)c1cc(-n2nc3ccc(Cl)cn3c2=O)c(F)cc1C#N [Compound No. A-21, 5-(6-Chloro-2,3-dihydro-3-oxo-1,2,4-triazolo[4,3-a]pyridin-2-yl)-2-cyano-4-fluoro-N-methylbenzenesulfonamide] | – | – | – | – | – | –
20 | 140 to 142 | COc1cc(-n2nc3ccc(Cl)cn3c2=O)c(F)cc1Cl [Compound No. A-23, 6-Chloro-2-(4-chloro-2-fluoro-5-methoxyphenyl)-1,2,4-triazolo[4,3-a]pyridin-3(2H)-one] | – | – | – | – | – | –
21 | 162 to 165 | CCOC(=O)C=Cc1cc(-n2nc3ccc(Cl)cn3c2=O)c(F)cc1Cl [A-42, Ethyl 2-chloro-4-fluoro-5-(6-chloro-2,3-dihydro-3-oxo-1,2,4-triazolo[4,3-a]pyridin-2-yl)cinnamate] | – | – | – | – | – | –
22 | – | CCS(=O)(=O)N(C(=O)C(C)(C)C)c1cc(-n2nc3ccc(Cl)cn3c2=O)c(F)cc1C#N [A-8] | 5 (maximum *all dead) 100) | 5 (maximum *all dead) 100) | 5 (maximum *all dead) 100) | 5 (maximum *all dead) 100) | – | –
23 | – | COC(=O)C(Cl)Cc1cc(-n2nc3ccc(Cl)cn3c2=O)c(F)cc1Cl (stereo not drawn) [Compound No. A-43, Methyl 2-chloro-3-[2-chloro-4-fluoro-5-(6-chloro-2,3-dihydro-3-oxo-1,2,4-triazolo[4,3-a]pyridin-2-yl)phenyl]propionate] | 5 (maximum *all dead) 100) | 5 (maximum *all dead) 100) | 5 (maximum *all dead) 100) | 5 (maximum *all dead) 100) | 0 (no effect 0) | 0 (no effect 0)
24 | – | CCOC(=O)C(C)Oc1cc(-n2nc3ccc(Cl)cn3c2=O)c(F)cc1Cl (stereo not drawn) [A-28] | 4 (maximum 87.6 to 99.9) | 5 (maximum *all dead) 100) | 5 (maximum *all dead) 100) | 5 (maximum *all dead) 100) | – | –
25 | 190 to 194 | CCC(=O)NS(=O)(=O)c1cc(-n2nc3ccc(Cl)cn3c2=O)c(F)cc1C#N [Compound No. A-20, 5-(6-Chloro-2,3-dihydro-3-oxo-1,2,4-triazolo[4,3-a]pyridin-2-yl)-2-cyano-4-fluoro-N-propionylbenzenesul fonamide] | – | – | – | – | – | –

Row | Structure (SMILES) | melting point [°C] | Evaluation index Velvet leaf (velvetleaf; 1 g/a) | Evaluation index Velvet leaf (velvetleaf; 10 g/a) | Evaluation index Redroot pigweed (redroot pigweed; 1 g/a) | Evaluation index Redroot pigweed (redroot pigweed; 10 g/a) | Evaluation index Corn (phytotoxicity) (corn; 1 g/a) | Evaluation index Corn (phytotoxicity) (corn; 10 g/a)
26 | CCS(=O)(=O)Nc1cc(-n2nc3n(c2=O)CCCS3)c(F)cc1C#N [Compound No. E-1, 5,6-Dihydro-2-(4-cyano-5-ethylsulfonylamino-2-fluorophenyl)-7H-[1,2,4]triazolo[3,4-b][1,3]thiazin-3(2H)-one] | 193 to 195 | 5 (maximum *all dead) 100) | 5 (maximum *all dead) 100) | 5 (maximum *all dead) 100) | 5 (maximum *all dead) 100) | 1 (small 0.1 to 12.5) | 1 (small 0.1 to 12.5)
27 | CCS(=O)(=O)N(C(C)=O)c1cc(-n2nc3ccc(Cl)cn3c2=O)c(F)cc1C#N [Compound No. A-6, 2-[5-(N-acetyl-N-ethanesulfonylamino)-4-cyano-2-fluorophenyl]-6-chloro-1,2,4-triazolo[4,3-a]pyridin-3(2H)-one] | 220 to 222 | – | 5 (maximum *all dead) 100) | – | 5 (maximum *all dead) 100) | – | 1 (small 0.1 to 12.5)
